Assay [1] concerns HTG21 (DNA, G4) GGGTTAGGGTTAGGGTTAGGG
The assay is described as follows: fluorescent intercalator displacement (FID). Particulars: thiazole orange displaced.

In another assay the test system is BEL-7402 cells. Also on record: method as in earlier work. Particulars: BEL-7402, 48 h; ref [1]; cited from earlier work.
The test system of a further assay is A549 cells. More on the design: method as in earlier work. Particulars: A549, 48 h; ref [1]; cited from earlier work.
The subject of another assay is Pu22. Also on record: method as in earlier work. Particulars: ref [1], cited from earlier work; for ctDNADC50/Pu22DC50: FID selectivity ratio; for Pu22DC50: FID.
In assay [2] the test system is c-kit-2. More on the design: method as in earlier work. Particulars: ref [1], cited from earlier work; for ctDNADC50/c-kit-2DC50: FID selectivity ratio; for c-kit-2DC50: FID.
The subject of assay [3] is BEL-7404 cells. Also on record: method as in earlier work. Particulars: BEL-7404, 48 h; ref [1]; cited from earlier work.
A further assay has as its system Pu27 (c-myc) G4. Also on record: method as in earlier work. Particulars: ref [1], cited from earlier work; for ctDNADC50/Pu27DC50: FID selectivity ratio; for Pu27DC50: FID.
In assay [4] the test system is Pu27 (DNA, G4) TGGGGAGGGTGGGGAGGGTGGGGAAGG
As to the kind of experiment: fluorescent intercalator displacement (FID). Particulars: thiazole orange displaced.

The test system of the next assay is ds26. The assay is described as follows: FID assay. Particulars: for ds26DC50: FID; for ctDNADC50/ds26DC50: FID selectivity ratio. It is filed as binding.
The test system of assay [5] is BEL-7404 cells. As to the kind of experiment: Apoptosis analysis (annexin V-FITC/PI flow cytometry). It is filed as cell-based, human. Particulars: BEL-7404, 10 μM, 24 h; untreated 6.1%. On the procedure:
(§1) Platinum(II)-based drugs were widely used in anticancer chemotherapies, therefore, we performed experiments to test the potency of chiral platinum(II) complexes 4–6 for inducing senescence and apoptosis in BEL-7404 cells. […] We next investigated the effect of complexes 4–6 on the induction of apoptosis. BEL-7404 cells were incubated with complexes 4 (10 and 20 μM), 5 (10 and 20 μM) and 6 (5, 10 and 20 μM) for 24 h, respectively, and then these cells staining with PI and Annexin-V-FITC were determined by flow cytometry (Figure 3A and Supplementary Figure 18). As shown in Figure 3A and Supplementary Figure 18, after treated of complexes 4–6 with 10 μM for 24 h, the percentage of apoptotic cells (including early-stage and late-stage, Q2+Q4) was 13.1%, 7.0% and 25.4%, respectively, whereas the normal cells was only 6.1%. We further investigated the ability of complexes 4–6 (5, 10 and 20 μM) to induce BEL-7404 cell cycle arrest (Figure 3B and Supplementary Figure 19). Cells were treated with complexes 4–6 at 10 μM for 48 h, the cell cycle arrest was determined by using flow cytometry. […]
(§2) Apoptosis analysis c-myc antibody, or anti-β-actin primary antibody and the Apoptosis was detected by flow cytometric analysis corresponding secondary antibody were used to detect of annexin V staining. […] Then, cells were incubated with annexin V-FITC and PI for 1.0 h at Staining for SA-β-Gal activity was carried out room temperature in the dark and immediately analyzed according to Moore and Chen reports. […] The data are presented as biparametric After the long-term incubation with complexes 4–6, the dot plots showing PI red fluorescence vs annexin V-FITC growth medium was aspirated and the BEL-7404 cells green fluorescence. were fixed in 2% formaldehyde/0.2% glutaraldehyde for 15.0 min at room temperature. […] Finally, the extraction, RT-PCR, and the selective binding to G4s by BEL-7404 cell cycle was determined with FACS Calibur complexes 4–6 was according to the our previous reported flow cytometer (BD) and analyzed using Cell Quest. […]

A further assay deals with c-kit-1. As to the kind of experiment: FID assay. It is filed as binding. Particulars: for c-kit-1DC50: FID; for ctDNADC50/c-kit-1DC50: FID selectivity ratio.
For assay [6], the system named is c-kit-2. The assay is described as follows: FID assay. It is filed as binding. Particulars: for c-kit-2DC50: FID; for ctDNADC50/c-kit-2DC50: FID selectivity ratio.
Assay [7] deals with BEL-7404 cells. The assay is described as follows: Cell cycle analysis (PI flow cytometry). It is filed as cell-based, human. Particulars: BEL-7404, 10 μM, 48 h; untreated 24.76%. On the procedure:
as §1, §2
In general terms: In flow cytometry, cells or beads pass a laser one at a time.

Read-outs that look alike come from different tables or passages of the source.

One may read the IC50 as the concentration needed to halve the response being measured. In [1], `O=C(NCC(O)CO)c1cnc2c3c(cccc13)-c1ccccc1C2=O.[Cl-].[Cl-].[Pt+2]` (racemic) [ligand 1, R/S-(±)-FOA] gave a G4DC50 of 1.23 µM. Also, the IC50 with BEL-7402 cells was 30.4 ± 1.5 µM. The IC50 in the assay on A549 cells was 20.2 ± 0.5 µM. Besides, in the assay on Pu22, the ctDNADC50/Pu22DC50 is reported as 1.88 and the Pu22DC50 is 33.97 µM. Moreover, in the assay with c-kit-2 [2], the ctDNADC50/c-kit-2DC50 is < 0.64 and the c-kit-2DC50 was > 100 µM. The IC50 with BEL-7404 cells [3] was 17.2 ± 0.1 µM. Moreover, in the assay with Pu27 (c-myc) G4, the ctDNADC50/Pu27DC50 is listed as 39.24 and the Pu27DC50 was 1.63 µM. The G4DC50 in [4] was determined as 1.01 µM.

In turn, `O=C(NC[C@@H](O)CO)c1cnc2c3c(cccc13)-c1ccccc1C2=O.[Cl-].[Cl-].[Pt+2]` [ligand 2, R-(+)-FOA] registered a G4DC50 in [1] of 1.26 µM. Also, in the assay with BEL-7402 cells, the half-inhibitory concentration (IC50) is 68.6 ± 0.8 µM. Further, the IC50 in the assay on A549 cells was 24.1 ± 0.4 µM. In the assay on Pu22, the ctDNADC50/Pu22DC50 is on record as 0.69 and the Pu22DC50 was 57.62 µM. In the assay with c-kit-2 [2], the ctDNADC50/c-kit-2DC50 is < 0.40 and the c-kit-2DC50 was > 100 µM. Besides, the IC50 with BEL-7404 cells [3] is 20.5 ± 0.1 µM. In the assay with Pu27 (c-myc) G4, the ctDNADC50/Pu27DC50 is recorded as 22.59 and the Pu27DC50 is 1.77 µM. Also, the G4DC50 in assay [4] turned out to be 0.89 µM.

As for `O=C(NC[C@H](O)CO)c1cnc2c3c(cccc13)-c1ccccc1C2=O.[Cl-].[Cl-].[Pt+2]` [ligand 3, S-(–)-FOA], the values for the G4DC50 in [1] and in [4] were 0.99 µM and 0.82 µM, respectively. Besides, the IC50 was 28.5 ± 2.4 µM in the assay on BEL-7402 cells, 20.4 ± 0.3 µM with A549 cells and 15.4 ± 0.2 µM in the assay with BEL-7404 cells [3]. Besides, the ctDNADC50/Pu22DC50 with Pu22 is 3.49. Besides, the Pu22DC50 with Pu22 is 25.75 µM. Further, the ctDNADC50/c-kit-2DC50 in the assay with c-kit-2 [2] is 3.92. Besides, the c-kit-2DC50 with c-kit-2 [2] was 22.94 µM. The ctDNADC50/Pu27DC50 in the assay with Pu27 (c-myc) G4 is on record as 62.81. The Pu27DC50 in the assay on Pu27 (c-myc) G4 was 1.43 µM.

For cis-[PtCl2(R-(+)-FOA)] [complex 5], in the assay with ds26, the ds26DC50 was 2.23 µM and the ctDNADC50/ds26DC50 is 28.56. Also, in the assay with BEL-7404 cells [5], the “percentage of apoptotic cells (early-stage and late-stage, Q2+Q4)” value (shortened to “percentage of apoptotic cells”) stood at 7.0%. In the assay with c-kit-1, the c-kit-1DC50 stood at 23.89 µM and the ctDNADC50/c-kit-1DC50 amounted to 2.67. In the assay with c-kit-2 [6], the c-kit-2DC50 was found to be 3.08 µM and the ctDNADC50/c-kit-2DC50 worked out at 20.68. Moreover, in the assay with BEL-7404 cells [7], the “percentage of cells at S phase” value is given as 32.33%.

Take cis-[PtCl2(R/S-(±)-FOA)] [complex 4]: in the assay on ds26, the ds26DC50 amounted to 1.65 µM and the ctDNADC50/ds26DC50 is 45.98. In the assay with BEL-7404 cells [5], the “percentage of apoptotic cells” value is reported as 13.1%. Also, in the assay with c-kit-1, the c-kit-1DC50 worked out at 1.45 µM and the ctDNADC50/c-kit-1DC50 amounted to 52.32. In the assay with c-kit-2 [6], the c-kit-2DC50 is 2.48 µM and the ctDNADC50/c-kit-2DC50 is listed as 30.59. Further, the “percentage of cells at S phase” value with BEL-7404 cells [7] is given as 37.59%.

Take cis-[PtCl2(S-(–)-FOA)] [complex 6]: in the assay on ds26, the ds26DC50 worked out at 1.39 µM and the ctDNADC50/ds26DC50 is reported as 65.27. The “percentage of apoptotic cells” value in the assay on BEL-7404 cells [5] was 25.4%. Besides, in the assay with c-kit-1, the c-kit-1DC50 worked out at 1.75 µM and the ctDNADC50/c-kit-1DC50 is recorded as 51.85. In the assay with c-kit-2 [6], the c-kit-2DC50 came out at 4.78 µM and the ctDNADC50/c-kit-2DC50 came out at 18.98. The “percentage of cells at S phase” value in the assay on BEL-7404 cells [7] is 38.61%.

Source of the values: paper PMC5617480 (Oncotarget, 2017).
